Square brackets hold non-standard residues; d marks the D form. Ends that are not written are not given here. Peptide text beside a SMILES is read from it. * marks the point of attachment. X1 = C[C@]12O[C@H](C[C@]1(O)C(=O)NCCCCCCCCNC(=O)C*)n1c3ccccc3c3c4c(c5c6ccccc6n2c5c31)CNC4=O; Fluorescein(5-NHCOCH2) = O=C(C*)Nc1ccc2c(c1)C(=O)OC21c2ccc(O)cc2Oc2cc(O)ccc21; pS = N[C@@H](COP(=O)(O)O)C(=O)O
Assays:
[1] = biological target: Bcl-2 (Homo sapiens, UniProt P10415); test: Bcl-2 binding by fluorescence emission of fluorescein-labeled peptide; conditions: read-out: Kd for binding to Bcl-2, 4° C., PBS
[2] = biological target: Akt kinase (PKB) (Homo sapiens, UniProt P31749); test: Phosphotransferase assay, PKB; assay type: biochemical; conditions: 1-K252a up to 100 nM; 1 up to 5 μM
[3] = biological target: protein kinase Cα (PKC-α) (Homo sapiens, UniProt P17252); test: Phosphotransferase assay, PKC-α; assay type: biochemical; conditions: 1-K252a up to 100 nM; 1 up to 5 μM
[4] = tested on: Ca++/calmodulin kinase II (CamKII); test: Phosphotransferase assay, CamKII; assay type: biochemical; conditions: 1-K252a up to 100 nM; 1 up to 5 μM
[5] = tested on: cGMP-dependent protein kinase (PKG); test: Phosphotransferase assay, PKG; assay type: biochemical; conditions: for inhibition of PKG phosphotransferase activity: 1 up to 5 μM
[6] = biological target: PKA (Homo sapiens, UniProt P17612); test: PKA phosphotransferase assay, streptavidin-matrix capture of [32P]-phosphorylated substrates; assay type: biochemical
[7] = biological target: catalytic subunit of PKA (Homo sapiens, UniProt P17612); test: Fluorescence polarization, affinity for PKA catalytic subunit; assay type: binding
[8] = biological target: T1, CBP KIX wild type (Mus musculus, UniProt P45481); test: Equilibrium fluorescence polarization, wild type CBP KIX; assay type: binding; conditions: 25° C.
T1 construct: made in house; host or cells: E. coli BL21(DE3) pArg
T1 sequence (P45481 586-665 limits assumed): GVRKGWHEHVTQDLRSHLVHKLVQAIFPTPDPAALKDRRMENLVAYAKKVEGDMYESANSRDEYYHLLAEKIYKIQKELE

Sequence of Akt kinase (PKB) (P31749 whole entry, species assumed): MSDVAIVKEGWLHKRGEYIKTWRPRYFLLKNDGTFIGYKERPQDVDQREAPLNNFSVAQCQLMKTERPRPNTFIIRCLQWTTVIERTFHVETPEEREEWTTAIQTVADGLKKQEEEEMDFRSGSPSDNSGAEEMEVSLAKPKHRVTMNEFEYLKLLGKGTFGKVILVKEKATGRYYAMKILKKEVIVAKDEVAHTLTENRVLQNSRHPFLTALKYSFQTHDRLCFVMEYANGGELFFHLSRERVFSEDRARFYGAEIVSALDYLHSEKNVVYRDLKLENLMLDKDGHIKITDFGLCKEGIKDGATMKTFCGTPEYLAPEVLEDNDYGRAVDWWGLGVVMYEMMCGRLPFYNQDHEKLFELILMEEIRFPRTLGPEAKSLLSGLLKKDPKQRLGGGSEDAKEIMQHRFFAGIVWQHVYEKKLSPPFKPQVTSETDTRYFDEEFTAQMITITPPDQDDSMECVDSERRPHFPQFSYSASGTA
Sequence of Bcl-2 (P10415 1-205): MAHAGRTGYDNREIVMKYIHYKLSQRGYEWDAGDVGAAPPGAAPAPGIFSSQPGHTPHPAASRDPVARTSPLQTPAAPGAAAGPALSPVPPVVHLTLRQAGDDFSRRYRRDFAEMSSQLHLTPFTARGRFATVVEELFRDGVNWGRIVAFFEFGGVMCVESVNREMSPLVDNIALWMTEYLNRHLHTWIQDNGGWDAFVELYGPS

Compound	Kd [1] [nM]	inhibition of PKB phosphotransferase activity [2]	inhibition of PKC-α phosphotransferase activity [3]	inhibition of CamKII phosphotransferase activity [4]	also measured
COC(=O)[C@@]1(O)C[C@H]2O[C@]1(C)n1c3ccccc3c3c4c(c5c6ccccc6n2c5c31)C(=O)NC4 [K252a, reference compound]		inhibited by K252a	inhibited by K252a	inhibited by K252a	inhibition of PKG phosphotransferase activity [5]: inhibited by K252a; IC50 ([6]; ATP and peptide substrate below KM): 0.14 ± 0.003 nM
CC[C@H](C)[C@H](NC(=O)[C@H](C)NC(=O)[C@H](CC(N)=O)NC(=O)[C@H](CCCNC(=N)N)NC(=O)[C@H](CCCNC(=N)N)NC(=O)CNC(=O)[C@@H](NC(=O)[C@@H](NC(=O)CNC(=O)[C@H](CC(C)C)NC(=O)[C@H](Cc1ccc(O)cc1)NC(=O)[C@@H](NC(=O)[C@H](Cc1ccccc1)NC(=O)[C@H](CC(C)C)NC(=O)[C@H](C)NC(=O)[C@H](Cc1ccc(O)cc1)NC(=O)[C@@H](NC(=O)[C@H](Cc1ccccc1)NC(=O)[C@H](CCCNC(=N)N)NC(=O)[C@@H](NC(=O)[C@H](CC(C)C)NC(=O)[C@H](CC(=O)O)NC(=O)[C@H](CCC(=O)O)NC(=O)[C@@H](NC(=O)[C@@H]1CCCN1C(=O)[C@H](C)NC(=O)[C@H](CC(=O)O)NC(=O)[C@H](CC(=O)O)NC(=O)CNC(=O)[C@@H]1CCCN1C(=O)[C@H](Cc1ccc(O)cc1)NC(=O)[C@@H](NC(=O)[C@@H]1CCCN1C(=O)[C@H](CCC(N)=O)NC(=O)[C@H](CO)NC(=O)[C@@H]1CCCN1C(=O)CN)[C@@H](C)O)C(C)C)[C@@H](C)CC)[C@@H](C)O)[C@@H](C)CC)C(C)C)C(C)C)C(=O)N[C@@H](Cc1c[nH]cn1)C(=O)N[C@@H](CC(=O)O)C(=O)N[C@@H](CSCC(=O)Nc1ccc2c(c1)C(=O)OC21c2ccc(O)cc2Oc2cc(O)ccc21)C(N)=O [2^Flu] (H-GPSQPTYPGDDAPVEDLIRFTYALFIYLGVVGRRNAIHDC(Fluorescein(5-NHCOCH2))-NH2; N-terminus and C-terminus assumed)					Kd ([7]; presence of 100 μM ATP): 570 ± 123 nM
CC[C@H](C)[C@H](NC(=O)[C@H](Cc1ccc(O)cc1)NC(=O)[C@H](C)NC(=O)[C@H](Cc1ccccc1)NC(=O)[C@H](COP(=O)(O)O)NC(=O)[C@H](CC(C)C)NC(=O)[C@H](CCCNC(=N)N)NC(=O)[C@H](CCCNC(=N)N)NC(=O)[C@@H](NC(=O)[C@@H]1CCCN1C(=O)[C@H](C)NC(=O)[C@H](CC(=O)O)NC(=O)[C@H](CC(=O)O)NC(=O)CNC(=O)[C@@H]1CCCN1C(=O)[C@H](Cc1ccc(O)cc1)NC(=O)[C@@H](NC(=O)[C@@H]1CCCN1C(=O)[C@H](CCC(N)=O)NC(=O)[C@H](CO)NC(=O)[C@@H]1CCCN1C(=O)CN)[C@@H](C)O)C(C)C)C(=O)N[C@@H](CC(C)C)C(=O)N[C@@H](CC(C)C)C(=O)N[C@@H](CC(=O)O)C(=O)N[C@@H](CC(C)C)C(=O)N[C@@H](Cc1ccc(O)cc1)C(=O)N[C@@H](CC(C)C)C(=O)N[C@@H](CC(=O)O)C(=O)N[C@@H](C)C(=O)N1CCC[C@H]1C(=O)NCC(=O)N[C@H](C(=O)N[C@@H](CSCC(=O)Nc1ccc2c(c1)C(=O)OC21c2ccc(O)cc2Oc2cc(O)ccc21)C(N)=O)C(C)C [F20A] (H-GPSQPTYPGDDAPVRRL[pS]FAYILLDLYLDAPGVC(Fluorescein(5-NHCOCH2))-NH2)					Kd [8]: 2550 ± 250 nM
GPSQPTYPGDDAPVEDLIRFYNDLTYYLFVVSGRTGRRNAIHDC(Fluorescein(5-NHCOCH2))-NH2 (C-terminus assumed) [1^Flu]					fold lower stability of PKA complex than PKA·PKI5-24^Flu ([7]; 100 μM ATP): 3 fold; Kd ([7]; absence of ATP): 230 ± 34 nM; Kd ([7]; presence of 100 μM ATP): 99 ± 39 nM
GPSQPTYPGDDAPVEDLIRFYNDLTYYLFVVSGRTGRRNAIHDC-NH2 (C-terminus assumed) [compound 1]		inhibiting no other kinase tested	inhibiting no other kinase tested	inhibiting no other kinase tested	inhibition of PKG phosphotransferase activity [5]: inhibiting no other kinase tested
GPSQPTYPGDDAPVEDLIRFYNDLTYYLFVVSGRTGRRNC(X1)IHD-NH2 (C-terminus assumed) [1-K252a]		inhibiting no other kinase tested	inhibiting no other kinase tested	inhibiting no other kinase tested	IC50 [5]: 679 ± 202 nM; fold more potent than 1 alone (PKA) [6]: 30 fold

Further lines, with some results ahead:

Kd [1] [nM]	Compound	inhibition of PKB phosphotransferase activity [2]	inhibition of PKC-α phosphotransferase activity [3]	inhibition of CamKII phosphotransferase activity [4]	also measured
3700 ± 1400	CC[C@H](C)[C@H](NC(=O)[C@H](Cc1ccc(O)cc1)NC(=O)[C@H](CCCNC(=N)N)NC(=O)[C@H](CC(C)C)NC(=O)[C@H](CCCNC(=N)N)NC(=O)[C@H](CO)NC(=O)[C@@H](NC(=O)[C@H](Cc1ccccc1)NC(=O)[C@H](CCCNC(=N)N)NC(=O)[C@@H](NC(=O)[C@H](CC(C)C)NC(=O)[C@H](CC(=O)O)NC(=O)[C@H](CCC(=O)O)NC(=O)[C@@H](NC(=O)[C@@H]1CCCN1C(=O)[C@H](C)NC(=O)[C@H](CC(=O)O)NC(=O)[C@H](CC(=O)O)NC(=O)CNC(=O)[C@@H]1CCCN1C(=O)[C@H](Cc1ccc(O)cc1)NC(=O)[C@@H](NC(=O)[C@@H]1CCCN1C(=O)[C@H](CCC(N)=O)NC(=O)[C@H](CO)NC(=O)[C@@H]1CCCN1C(=O)CN)[C@@H](C)O)C(C)C)[C@@H](C)CC)C(C)C)C(=O)N[C@@H](C)C(=O)N[C@@H](CC(=O)O)C(=O)N[C@@H](CC(C)C)C(=O)N[C@H](C(=O)N[C@@H](CC(N)=O)C(=O)N[C@@H](CCCNC(=N)N)C(=O)N[C@@H](CCCNC(=N)N)C(=O)N[C@@H](Cc1ccc(O)cc1)C(=O)N[C@@H](CSCC(=O)Nc1ccc2c(c1)C(=O)OC21c2ccc(O)cc2Oc2cc(O)ccc21)C(N)=O)[C@@H](C)CC [p4102] (H-GPSQPTYPGDDAPVEDLIRFVSRLRYIADLINRRYC(Fluorescein(5-NHCOCH2))-NH2)				
811 ± 20	CC[C@H](C)[C@H](NC(=O)[C@H](CC(=O)O)NC(=O)[C@H](CC(=O)O)NC(=O)CNC(=O)[C@H](Cc1ccccc1)NC(=O)[C@H](Cc1ccc(O)cc1)NC(=O)[C@H](C)NC(=O)[C@H](CC(C)C)NC(=O)[C@H](CC(C)C)NC(=O)[C@H](CCCNC(=N)N)NC(=O)CNC(=O)[C@@H](NC(=O)[C@H](Cc1ccccc1)NC(=O)[C@H](CCCNC(=N)N)NC(=O)[C@@H](NC(=O)[C@H](CC(C)C)NC(=O)[C@H](CC(=O)O)NC(=O)[C@H](CCC(=O)O)NC(=O)[C@@H](NC(=O)[C@@H]1CCCN1C(=O)[C@H](C)NC(=O)[C@H](CC(=O)O)NC(=O)[C@H](CC(=O)O)NC(=O)CNC(=O)[C@@H]1CCCN1C(=O)[C@H](Cc1ccc(O)cc1)NC(=O)[C@@H](NC(=O)[C@@H]1CCCN1C(=O)[C@H](CCC(N)=O)NC(=O)[C@H](CO)NC(=O)[C@@H]1CCCN1C(=O)CN)[C@@H](C)O)C(C)C)[C@@H](C)CC)C(C)C)C(=O)N[C@@H](CC(N)=O)C(=O)N[C@@H](CCCNC(=N)N)C(=O)N[C@@H](CCCNC(=N)N)C(=O)N[C@@H](Cc1ccc(O)cc1)C(=O)N[C@@H](CSCC(=O)Nc1ccc2c(c1)C(=O)OC21c2ccc(O)cc2Oc2cc(O)ccc21)C(N)=O [p4101] (H-GPSQPTYPGDDAPVEDLIRFVGRLLAYFGDDINRRYC(Fluorescein(5-NHCOCH2))-NH2)				
401 ± 40	CC[C@H](C)[C@H](NC(=O)[C@H](CCC(=O)O)NC(=O)[C@H](CC(=O)O)NC(=O)CNC(=O)[C@H](Cc1ccccc1)NC(=O)[C@H](Cc1ccc(O)cc1)NC(=O)[C@H](CCCNC(=N)N)NC(=O)[C@H](CC(C)C)NC(=O)[C@H](CC(C)C)NC(=O)[C@H](CCCNC(=N)N)NC(=O)CNC(=O)[C@@H](NC(=O)[C@H](Cc1ccccc1)NC(=O)[C@H](CCCNC(=N)N)NC(=O)[C@@H](NC(=O)[C@H](CC(C)C)NC(=O)[C@H](CC(=O)O)NC(=O)[C@H](CCC(=O)O)NC(=O)[C@@H](NC(=O)[C@@H]1CCCN1C(=O)[C@H](C)NC(=O)[C@H](CC(=O)O)NC(=O)[C@H](CC(=O)O)NC(=O)CNC(=O)[C@@H]1CCCN1C(=O)[C@H](Cc1ccc(O)cc1)NC(=O)[C@@H](NC(=O)[C@@H]1CCCN1C(=O)[C@H](CCC(N)=O)NC(=O)[C@H](CO)NC(=O)[C@@H]1CCCN1C(=O)CN)[C@@H](C)O)C(C)C)[C@@H](C)CC)C(C)C)C(=O)N[C@@H](CC(N)=O)C(=O)N[C@@H](CCCNC(=N)N)C(=O)N[C@@H](CCCNC(=N)N)C(N)=O [p4100] (H-GPSQPTYPGDDAPVEDLIRFVGRLLRYFGDEINRR-NH2)				

Source: US20110028686A1, “Protein binding miniature proteins” (Yale University, priority 2000, published 2011)
